Experiments:
[1] = molecular target: T1, HiBiT-BRM fusion protein in stable HeLa cell line (Homo sapiens, UniProt P51531); experiment: HiBiT-BRM cell-based degradation assay (Nano-Glo HiBiT Lytic Detection, 24 h); set-up: DC50: scale not given here; settings: HeLa HiBiT-BRM cells; for DC50: read-out: BRM HiBit Degradation IC50; for BRM HiBit Degradation Maximum (%): top dose 30 μM
T1 construct: expressed in transfected cells
How it was run: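 Percent degradation was scaled between DMSO-treated cells and cells given 2 μM of a known BRM/BRG1 degrader. Readout was NanoBiT luminescence after lytic detection. HeLa cells stably expressing HiBiT-BRM were dosed for 24 h, 10 points, 3-fold steps from 30 μM final, in duplicate.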

[2] = molecular target: T2, HiBit-BRG1 fusion protein in stable HeLa cell line expressing HiBit-BRG1 and LgBit (Homo sapiens, UniProt P51532); experiment: HiBiT-BRG1 cell-based degradation assay (Nano-Glo HiBiT, 24 h); settings: HeLa HiBit-BRG1/LgBit cells; for DC50: read-out: BRMG1 HiBit Degradation IC50; for Dmax: top dose 30 μM, read-out: BRG1 HiBit Degradation Maximum (%)
T2 construct: expressed in transfected cells
How it was run: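 Degradation calculated from NanoBiT luminescence relative to DMSO-treated cells (high) and cells given 2 μM known BRM/BRG1 degrader (low). HeLa cells stably expressing HiBiT-BRG1 plus LgBiT were exposed to compound for 24 h before lytic HiBiT detection.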

T2 sequence (P51532 whole entry, the tested form may be a part): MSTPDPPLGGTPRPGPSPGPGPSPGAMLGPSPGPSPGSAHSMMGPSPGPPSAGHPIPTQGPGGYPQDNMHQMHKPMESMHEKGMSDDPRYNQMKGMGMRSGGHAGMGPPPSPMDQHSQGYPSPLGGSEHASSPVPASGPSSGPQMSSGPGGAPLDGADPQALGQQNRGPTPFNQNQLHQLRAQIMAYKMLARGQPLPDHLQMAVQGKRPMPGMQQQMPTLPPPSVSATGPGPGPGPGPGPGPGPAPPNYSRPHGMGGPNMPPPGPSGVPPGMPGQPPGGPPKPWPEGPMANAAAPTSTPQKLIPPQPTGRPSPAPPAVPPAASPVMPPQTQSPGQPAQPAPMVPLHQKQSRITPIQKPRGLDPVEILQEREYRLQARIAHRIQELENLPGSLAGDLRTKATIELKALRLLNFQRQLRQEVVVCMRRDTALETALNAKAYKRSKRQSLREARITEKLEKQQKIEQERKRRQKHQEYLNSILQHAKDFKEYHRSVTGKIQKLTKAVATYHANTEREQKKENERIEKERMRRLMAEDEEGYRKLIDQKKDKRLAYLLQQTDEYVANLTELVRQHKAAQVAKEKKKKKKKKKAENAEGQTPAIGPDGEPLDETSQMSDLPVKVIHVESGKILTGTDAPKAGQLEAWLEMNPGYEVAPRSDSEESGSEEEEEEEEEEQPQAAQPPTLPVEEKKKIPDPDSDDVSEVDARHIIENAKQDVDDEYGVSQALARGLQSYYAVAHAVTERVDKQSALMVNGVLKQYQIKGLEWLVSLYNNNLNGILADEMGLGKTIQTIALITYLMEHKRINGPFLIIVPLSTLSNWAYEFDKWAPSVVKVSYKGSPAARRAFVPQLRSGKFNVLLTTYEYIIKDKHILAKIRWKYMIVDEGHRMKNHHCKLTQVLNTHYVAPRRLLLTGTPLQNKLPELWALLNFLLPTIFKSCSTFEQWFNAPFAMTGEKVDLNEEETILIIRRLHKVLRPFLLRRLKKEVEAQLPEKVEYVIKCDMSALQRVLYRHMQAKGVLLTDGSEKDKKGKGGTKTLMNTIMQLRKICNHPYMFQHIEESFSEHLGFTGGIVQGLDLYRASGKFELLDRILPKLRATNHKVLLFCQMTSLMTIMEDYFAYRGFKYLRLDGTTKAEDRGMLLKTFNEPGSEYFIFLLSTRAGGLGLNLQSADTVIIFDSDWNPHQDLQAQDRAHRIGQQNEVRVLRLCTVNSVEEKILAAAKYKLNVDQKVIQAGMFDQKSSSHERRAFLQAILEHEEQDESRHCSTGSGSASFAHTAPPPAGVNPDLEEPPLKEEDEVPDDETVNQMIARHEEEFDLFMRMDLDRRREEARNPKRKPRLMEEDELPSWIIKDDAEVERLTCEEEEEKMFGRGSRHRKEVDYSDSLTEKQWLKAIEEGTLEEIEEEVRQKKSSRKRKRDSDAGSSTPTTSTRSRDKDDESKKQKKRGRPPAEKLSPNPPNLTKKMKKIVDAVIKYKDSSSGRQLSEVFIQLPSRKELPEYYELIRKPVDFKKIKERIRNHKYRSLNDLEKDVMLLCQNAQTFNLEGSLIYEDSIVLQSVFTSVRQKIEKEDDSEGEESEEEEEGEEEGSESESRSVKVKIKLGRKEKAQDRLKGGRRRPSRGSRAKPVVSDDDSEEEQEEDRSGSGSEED
T1 sequence (P51531 whole entry, the tested form may be a part): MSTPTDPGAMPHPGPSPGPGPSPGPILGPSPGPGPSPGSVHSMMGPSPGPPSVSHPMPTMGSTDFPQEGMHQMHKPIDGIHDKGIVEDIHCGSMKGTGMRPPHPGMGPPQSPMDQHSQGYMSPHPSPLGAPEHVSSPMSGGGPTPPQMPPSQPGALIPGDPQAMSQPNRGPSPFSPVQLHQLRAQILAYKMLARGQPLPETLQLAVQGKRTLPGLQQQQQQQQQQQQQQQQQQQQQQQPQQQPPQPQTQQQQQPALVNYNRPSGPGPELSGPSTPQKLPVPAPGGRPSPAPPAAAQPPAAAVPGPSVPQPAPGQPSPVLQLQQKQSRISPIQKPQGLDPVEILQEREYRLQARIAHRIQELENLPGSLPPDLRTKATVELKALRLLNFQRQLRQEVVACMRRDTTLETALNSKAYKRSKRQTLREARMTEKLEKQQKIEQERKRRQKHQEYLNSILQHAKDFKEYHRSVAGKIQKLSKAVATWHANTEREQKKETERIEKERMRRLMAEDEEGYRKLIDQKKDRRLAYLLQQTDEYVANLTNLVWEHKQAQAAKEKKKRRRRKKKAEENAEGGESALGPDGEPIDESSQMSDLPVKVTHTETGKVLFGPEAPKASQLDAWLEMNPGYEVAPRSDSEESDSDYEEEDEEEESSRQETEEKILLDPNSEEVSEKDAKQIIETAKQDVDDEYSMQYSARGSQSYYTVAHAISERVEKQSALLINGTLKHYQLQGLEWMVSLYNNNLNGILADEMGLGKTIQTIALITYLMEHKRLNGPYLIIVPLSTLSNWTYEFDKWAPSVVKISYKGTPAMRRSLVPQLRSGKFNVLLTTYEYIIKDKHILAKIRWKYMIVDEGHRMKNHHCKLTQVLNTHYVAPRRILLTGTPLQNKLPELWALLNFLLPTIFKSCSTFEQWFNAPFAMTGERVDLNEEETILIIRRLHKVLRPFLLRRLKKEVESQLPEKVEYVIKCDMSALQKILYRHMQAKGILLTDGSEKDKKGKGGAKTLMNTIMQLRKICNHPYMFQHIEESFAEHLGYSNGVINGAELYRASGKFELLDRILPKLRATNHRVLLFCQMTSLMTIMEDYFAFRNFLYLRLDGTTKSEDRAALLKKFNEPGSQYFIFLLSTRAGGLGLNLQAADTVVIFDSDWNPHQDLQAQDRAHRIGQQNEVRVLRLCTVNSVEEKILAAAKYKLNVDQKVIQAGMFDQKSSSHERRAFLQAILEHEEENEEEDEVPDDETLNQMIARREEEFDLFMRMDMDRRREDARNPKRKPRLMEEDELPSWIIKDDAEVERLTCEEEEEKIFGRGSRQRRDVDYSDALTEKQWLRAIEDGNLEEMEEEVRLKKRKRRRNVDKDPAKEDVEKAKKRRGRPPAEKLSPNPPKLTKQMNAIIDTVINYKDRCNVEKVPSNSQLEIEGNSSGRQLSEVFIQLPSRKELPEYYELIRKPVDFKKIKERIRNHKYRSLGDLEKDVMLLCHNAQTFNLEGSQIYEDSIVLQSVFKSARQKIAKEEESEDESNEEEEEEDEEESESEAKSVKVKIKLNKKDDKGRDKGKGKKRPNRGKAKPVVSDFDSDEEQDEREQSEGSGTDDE

| SMILES | DC50 [1] | BRM HiBit Degradation Maximum (%) [1] | DC50 [2] | Dmax [2] |
| --- | --- | --- | --- | --- |
| Cc1ncsc1-c1ccc([C@H](C)NC(=O)[C@@H]2C[C@@H](O)CN2C(=O)[C@@H](c2cc(N3CC4(CC(c5cc6nnc(-c7ccccc7O)cc6cc5C5CC5)C4)C3)no2)C(C)C)cc1 [Compound 252, (2S,4R)-1-((R)-2-(3-(6-(6-cyclopropyl-3-(2-hydroxyphenyl)cinnolin-7-yl)-2-azaspiro[3.3]heptan-2-yl)isoxazol-5-yl)-3-methylbutanoyl)-4-hydroxy-N-((S)-1-(4-(4-methylthiazol-5-yl)phenyl)ethyl)pyrrolidine-2-carboxamide] | < 10 nM | A (“A” indicates maximum degradation ≥75%) | < 10 nM | > 75% |
| Cc1ncsc1-c1ccc([C@H](C)NC(=O)[C@@H]2C[C@@H](O)CN2C(=O)[C@@H](c2cc(N3CC4(C3)CN(c3cc5nnc(-c6ccccc6O)cc5cc3OC3CC3)C4)no2)C(C)C)cc1 [Compound 253, (2S,4R)-1-((R)-2-(3-(6-(6-cyclopropoxy-3-(2-hydroxyphenyl)cinnolin-7-yl)-2,6-diazaspiro[3.3]heptan-2-yl)isoxazol-5-yl)-3-methylbutanoyl)-4-hydroxy-N-((S)-1-(4-(4-methylthiazol-5-yl)phenyl)ethyl)pyrrolidine-2-carboxamide] | < 10 nM | A (“A” indicates maximum degradation ≥75%) | < 10 nM | > 75% |
| C#Cc1ccc([C@H](C)NC(=O)[C@@H]2C[C@@H](O)CN2C(=O)[C@H](C(C)C)n2cc(N3CC4(CN(c5ccc6cc(-c7ccccc7O)nnc6c5)C4)C3)nn2)cc1 [Compound 254, (2S,4R)-N-((S)-1-(4-ethynylphenyl)ethyl)-4-hydroxy-1-((S)-2-(4-(6-(3-(2-hydroxyphenyl)cinnolin-7-yl)-2,6-diazaspiro[3.3]heptan-2-yl)-1H-1,2,3-triazol-1-yl)-3-methylbutanoyl)pyrrolidine-2-carboxamide] | < 10 nM | A (“A” indicates maximum degradation ≥75%) |  | < 50% |
| C#Cc1ccc(CNC(=O)[C@@H]2C[C@@H](O)CN2C(=O)[C@H](C(C)C)n2cc(N3CC4(CN(c5ccc6cc(-c7ccccc7O)nnc6c5)C4)C3)nn2)cc1 [Compound 255, (2S,4R)-N-(4-ethynylbenzyl)-4-hydroxy-1-((S)-2-(4-(6-(3-(2-hydroxyphenyl)cinnolin-7-yl)-2,6-diazaspiro[3.3]heptan-2-yl)-1H-1,2,3-triazol-1-yl)-3-methylbutanoyl)pyrrolidine-2-carboxamide] | < 10 nM | A (“A” indicates maximum degradation ≥75%) |  | < 50% |
| Cc1ncsc1-c1ccc([C@H](C)NC(=O)[C@@H]2C[C@@H](O)CN2C(=O)[C@@H](c2cc(N3CCC(N4CC5(CN(Cc6ccc7nnc(-c8ccccc8O)cc7c6)C5)C4)CC3)no2)C(C)C)cc1 [Compound 256, (2S,4R)-4-hydroxy-1-((R)-2-(3-(4-(6-((3-(2-hydroxyphenyl)cinnolin-6-yl)methyl)-2,6-diazaspiro [3.3]heptan-2-yl)piperidin-1-yl)isoxazol-5-yl)-3-methylbutanoyl)-N-((S)-1-(4-(4-methylthiazol-5-yl)phenyl)ethyl)pyrrolidine-2-carboxamide] | > 100 nM | B (“B” indicates maximum degradation ≥50%) | > 10 nM | > 75% |
| Cc1ncsc1-c1ccc([C@@H](C)NC(=O)[C@H]2C[C@H](O)CN2C(=O)[C@H](C(C)C)n2cc(N3CC4(CN(c5ccc6nnc(-c7ccccc7O)cc6c5)C4)C3)cn2)cc1 [Compound 258, (2R,4S)-4-hydroxy-1-[(2S)-2-(4-{6-[3-(2-hydroxyphenyl)cinnolin-6-yl]-2,6-diazaspiro[3.3]heptan-2-yl}pyrazol-1-yl)-3-methylbutanoyl]-N-[(1R)-1-[4-(4-methyl-1,3-thiazol-5-yl)phenyl]ethyl]pyrrolidine-2-carboxamide] | > 10 nM | A (“A” indicates maximum degradation ≥75%) | > 10 nM | > 50% |
| Cc1ncsc1-c1ccc([C@H](C)NC(=O)[C@@H]2C[C@@H](O)CN2C(=O)C(C(C)C)n2cc(N3CCC(CN4CCN(c5ccc6cc(-c7ccccc7O)nnc6c5)CC4)CC3)nn2)cc1 (stereo partly drawn) [Compound 259, (2S,4R)-4-hydroxy-1-(2-(4-(4-((4-(3-(2-hydroxyphenyl)cinnolin-7-yl)piperazin-1-yl)methyl)piperidin-1-yl)-1H-1,2,3-triazol-1-yl)-3-methylbutanoyl)-N-((S)-1-(4-(4-methylthiazol-5-yl)phenyl)ethyl)pyrrolidine-2-carboxamide] | < 10 nM | A (“A” indicates maximum degradation ≥75%) | > 10 nM | > 75% |
| Cc1ncsc1-c1ccc([C@H](C)NC(=O)[C@@H]2C[C@@H](O)CN2C(=O)C(C(C)C)n2cc(N3CCN(CC4CCCN(c5ccc6cc(-c7ccccc7O)nnc6c5)C4)CC3)nn2)cc1 (stereo partly drawn) [Compound 260, (2S,4R)-4-hydroxy-1-(2-(4-(4-((1-(3-(2-hydroxyphenyl)cinnolin-7-yl)piperidin-3-yl)methyl)piperazin-1-yl)-1H-1,2,3-triazol-1-yl)-3-methylbutanoyl)-N-((S)-1-(4-(4-methylthiazol-5-yl)phenyl)ethyl)pyrrolidine-2-carboxamide] | > 10 nM | A (“A” indicates maximum degradation ≥75%) | > 10 nM | > 75% |
| Cc1ncsc1-c1ccc([C@H](C)NC(=O)[C@@H]2C[C@@H](O)CN2C(=O)C(C(C)C)n2cc(N3CCCC(CN4CCN(c5ccc6cc(-c7ccccc7O)nnc6c5)CC4)C3)nn2)cc1 (stereo partly drawn) [Compound 261, (2S,4R)-4-hydroxy-1-(2-(4-(3-((4-(3-(2-hydroxyphenyl)cinnolin-7-yl)piperazin-1-yl)methyl)piperidin-1-yl)-1H-1,2,3-triazol-1-yl)-3-methylbutanoyl)-N-((S)-1-(4-(4-methylthiazol-5-yl)phenyl)ethyl)pyrrolidine-2-carboxamide] | > 10 nM | A (“A” indicates maximum degradation ≥75%) | > 10 nM | > 75% |
| Cc1ncsc1-c1ccc([C@H](C)NC(=O)[C@@H]2C[C@@H](O)CN2C(=O)C(C(C)C)n2cc(N3CCC4(CCCN4c4ccc5cc(-c6ccccc6O)nnc5c4)C3)nn2)cc1 (stereo partly drawn) [Compound 262, (2S,4R)-4-hydroxy-1-(2-(4-(1-(3-(2-hydroxyphenyl)cinnolin-7-yl)-1,7-diazaspiro[4.4]nonan-7-yl)-1H-1,2,3-triazol-1-yl)-3-methylbutanoyl)-N-((S)-1-(4-(4-methylthiazol-5-yl)phenyl)ethyl)pyrrolidine-2-carboxamide] | > 100 nM | A (“A” indicates maximum degradation ≥75%) | > 100 nM | > 50% |
| Cc1ncsc1-c1ccc([C@H](C)NC(=O)[C@@H]2C[C@@H](O)CN2C(=O)C(C(C)C)n2cc(N3CCC4C(C3)CN4c3ccc4cc(-c5ccccc5O)nnc4c3)nn2)cc1 (stereo partly drawn) [Compound 263, (2S,4R)-4-hydroxy-1-(2-(4-(7-(3-(2-hydroxyphenyl)cinnolin-7-yl)-3,7-diazabicyclo[4.2.0]octan-3-yl)-1H-1,2,3-triazol-1-yl)-3-methylbutanoyl)-N-((S)-1-(4-(4-methylthiazol-5-yl)phenyl)ethyl)pyrrolidine-2-carboxamide] | > 10 nM | A (“A” indicates maximum degradation ≥75%) | > 10 nM | > 75% |
| Cc1ncsc1-c1ccc([C@H](C)NC(=O)[C@@H]2C[C@@H](O)CN2C(=O)C(C(C)C)n2cc(N3CCC4(CCN4c4ccc5cc(-c6ccccc6O)nnc5c4)C3)nn2)cc1 (stereo partly drawn) [Compound 264, (2S,4R)-4-hydroxy-1-(2-(4-(1-(3-(2-hydroxyphenyl)cinnolin-7-yl)-1,6-diazaspiro[3.4]octan-6-yl)-1H-1,2,3-triazol-1-yl)-3-methylbutanoyl)-N-((S)-1-(4-(4-methylthiazol-5-yl)phenyl)ethyl)pyrrolidine-2-carboxamide] | > 10 nM | A (“A” indicates maximum degradation ≥75%) |  | < 50% |
| Cc1ncsc1-c1ccc([C@H](C)NC(=O)[C@@H]2C[C@@H](O)CN2C(=O)C(C(C)C)n2cc(N3CCC34CN(c3ccc5cc(-c6ccccc6O)nnc5c3)C4)nn2)cc1 (stereo partly drawn) [Compound 265, (2S,4R)-4-hydroxy-1-(2-(4-(6-(3-(2-hydroxyphenyl)cinnolin-7-yl)-1,6-diazaspiro[3.3]heptan-1-yl)-1H-1,2,3-triazol-1-yl)-3-methylbutanoyl)-N-((S)-1-(4-(4-methylthiazol-5-yl)phenyl)ethyl)pyrrolidine-2-carboxamide] | > 100 nM | A (“A” indicates maximum degradation ≥75%) | > 100 nM | > 75% |
| Cc1ncsc1-c1ccc([C@H](C)NC(=O)[C@@H]2C[C@@H](O)CN2C(=O)C(C(C)C)n2cc(N3CCC(C4CCN(c5ccc6cc(-c7ccccc7O)nnc6c5)CC4)C3)nn2)cc1 (stereo partly drawn) [Compound 266, (2S,4R)-4-hydroxy-1-(2-(4-(3-(1-(3-(2-hydroxyphenyl)cinnolin-7-yl)piperidin-4-yl)pyrrolidin-1-yl)-1H-1,2,3-triazol-1-yl)-3-methylbutanoyl)-N-((S)-1-(4-(4-methylthiazol-5-yl)phenyl)ethyl)pyrrolidine-2-carboxamide] | < 10 nM | A (“A” indicates maximum degradation ≥75%) | < 10 nM | > 75% |

Reference: patent US20260193264A1, “BENZOYPARAZINE PYRAZINES AND THEIR USES” (FOGHORN THERAPEUTICS INC., priority 2022, published 2026)
